Columns and labels:
biotin-HS = experiment: Digestion of biotin-HS by enzymes, detected with streptavidin-enzyme conjugate; assay type: biochemical; conditions: protease in place of heparanase; FIG. 6
heparanase = biological target: T1, heparanase (Pedobacter heparinus, UniProt Q59289); experiment: Heparanase assay: biotin-HS digestion with heparanase with or without excess unlabeled HS; assay type: biochemical, bacterial; conditions: 50 fold (5 μg) excess of unlabeled HS
T1 construct: purchased Seikagaku
Procedure: Biotin-labeled HS from Example 1 was digested with heparanase, and the reaction containing undegraded and degraded HS was bound to in a biotin-binding plate (FIG. 1). Streptavidin, conjugated with an enzyme, was added to the binding plate. Quantitation of the color reaction measured the amount of available biotin binding sites. A decrease in color from a known amount reflects HS digestion by heparanase.
A lyophilized powder of heparanase (Heparanase III obtained from Seikagaku) containing 0.1 units of enzymatic activity was hydrated in 100 μl of Reaction Buffer (3.33 mM calcium acetate pH 7.0, containing 0.1 mg/ml BSA). This solution was then diluted to a working concentration of heparanase solution (0.01 micro-units to 1 milli-unit) in Reaction Buffer. Enzyme activity was defined by the manufacturer of the heparanase (Seikagaku) as follows: one unit of enzyme activity is defined as amount required to generate 1 μmole of hexuronic acid per minute. Biotin-HS was diluted to a desired concentration in Reaction Buffer.
To determine heparanase activity, 10 μl of heparanase solution was mixed with 200 μl of the biotin-HS substrate in a 96 well plate. The reaction was incubated at 43° C. for 1 hour. […] Color development in the wells was assessed by measuring the optical density at 450 nm in a microplate reader (Labsystems, Muliskan Ascent model). […]

T1 sequence (Q59289 25-659): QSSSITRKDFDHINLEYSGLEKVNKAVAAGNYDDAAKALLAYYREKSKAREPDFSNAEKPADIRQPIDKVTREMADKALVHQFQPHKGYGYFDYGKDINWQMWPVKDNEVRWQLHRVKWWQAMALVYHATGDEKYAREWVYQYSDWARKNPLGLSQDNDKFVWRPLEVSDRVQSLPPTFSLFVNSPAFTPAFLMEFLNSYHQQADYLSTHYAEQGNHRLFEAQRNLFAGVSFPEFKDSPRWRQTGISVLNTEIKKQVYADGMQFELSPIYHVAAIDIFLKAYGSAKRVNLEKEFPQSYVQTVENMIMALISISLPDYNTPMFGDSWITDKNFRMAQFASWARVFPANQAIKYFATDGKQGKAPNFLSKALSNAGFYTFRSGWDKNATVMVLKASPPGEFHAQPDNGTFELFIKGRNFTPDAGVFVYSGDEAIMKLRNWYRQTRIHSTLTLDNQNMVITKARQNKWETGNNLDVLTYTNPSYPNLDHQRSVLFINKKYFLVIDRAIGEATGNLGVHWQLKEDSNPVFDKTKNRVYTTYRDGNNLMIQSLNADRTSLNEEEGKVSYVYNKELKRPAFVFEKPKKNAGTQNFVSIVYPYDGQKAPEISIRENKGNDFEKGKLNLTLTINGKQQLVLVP

Substance | Activity leading to a decrease in the amount of biotin-HS detected by the assay (biotin-HS) | Inhibition of heparanase activity toward biotin-HS (heparanase)
trypsin | Neither protease tested (MMP or trypsin) demonstrated any activity | –
heparan sulfate [unlabeled HS] | – | approximately 60%
